According to article PMC4191062, “Development of αGlcN(1↔1)αMan-Based Lipid A Mimetics as a Novel Class of Potent Toll-like Receptor 4 Agonists” (Journal of Medicinal Chemistry, 2014):

Key:
[1] = tested on: THP-1 cells; test: Cytokine expression (TNF-α, IL-8, MCP-1; ELISA) in TPA-differentiated THP-1 macrophage-like cells; type: cell-based, human; details: for activation of the MyD88 signaling pathway compared to Re-LPS/LPS: THP-1; for potency in induction of expression of IL-8 compared to Re-LPS/LPS / potency in induction of expression of TNF-α compared to Re-LPS/LPS: dose-dependent
Description: Lipid A mimetics 1–3 were examined for the ability to initiate the expression of tumor necrosis factor-α (TNF-α), interleukin-8 (IL-8), and monocyte chemotactic protein-1 (MCP-1) in the human monocytic macrophage-like cell line THP-1, which expresses MD-2, CD14, and a variety of cell surface receptors, including TLR4.
THP-1 cells were grown in RPMI-1640 cell-culture medium (Life Technologies) that was supplemented with 2 mM L-glutamine, 100 U/mL penicillin, 100 μg/mL streptomycin, and 10% FCS. Cells were seeded in a 96-well plate at 10^5 cells/well in 150 μL of complete medium and stimulated by 200 nM TPA for 24 h to induce the differentiation into macrophage-like cells.[59] […] Cells were stimulated with α,α-GM-LAMs 1–3 at the indicated concentration and with E. coliRe-LPS (or E. coli O111:B4 LPS), which were added as solutions in 10 μL of complete medium. The total volume of the well after stimulation reached 220 μL. The cells were incubated for 18 h, and the supernatants were analyzed for TNF-α, IL-8, and MCP-1 by ELISA (BD Biosciences).
Supplementary SI-Figure 2
E. coli wild type O111:B4 LPS is a large heterogeneous molecule with molecular weight (MW) comprising 10-15 kDa. Since we were particularly interested in the molecular recognition mechanisms implicated in the binding of LPS by the MD-2∙TLR4 complex wherein the Lipid A/Re-LPS (MW 1.8/2.2 kDa, respectively) portion of LPS is mostly involved, we have analyzed the dose-dependent THP-1 cells activation by synthetic α,α-GM-LAM 1-3 (at the concentrations 0.1 – 300 ng/ml) compared to E. coli Re-LPS which is more appropriate in this instance. Since the divergences in the expression of different cytokines by E. coli LPS vs. Re-LPS are only scarcely reported in the literature, we have performed dose-dependent activation experiments comparing expression of TNF-α, IL-8 and MCP-1 by E. coli O111:B4 LPS and E. coli Re-LPS at the concentrations 0.4 – 100 nM. Wild-type LPS (MW 10 […]
range (0.4 – 10 nM), whereas at the concentrations above 10 nM (50 nM for MCP-1) the levels of cytokines […]
This might be explained by a different aggregation state of Re-LPS and wild type LPS, and, therefore, the alterations in the transfer of a single LPS molecule to TLR4∙MD-2 complex by LBP and CD-14. Higher MW (> 10 kDa) of the LPS molecule applied for the calculations of the concentrations in [nM] would result in the shift of the activation profile induced by wild-type LPS. Calculation of EC50 values were hardly possible, since the maximum TLR4 saturation levels were not achieved at the concentrations tested.
SI-Figure 2. Dose-dependent expression of pro-inflammatory cytokines TNF-α, IL-8 and MCP-1 in human macrophage cell line THP-1 by E. coli Re-LPS compared to E. coli wild-type O111:B4 LPS. (A) Comparative expression of TNF-a; (B) comparative expression of IL-8; (C) comparative expression of MCP-1 […]
(1 picture or pasted object on this page, not shown here)
Supplementary SI-Figure 3
Dose-dependent responses (THP-1 cells: α,α-GM-LAM 1-3 and Re-LPS) at the concentration range 0.4 – 100 ng/ml which are presented in the Figure 5, were extended to the higher concentration range (up to 300 ng/ml).
SI-Figure 3. Dose-dependent expression of cytokines induced by α,α-GM-LAM 1-3 in macrophage cell line THP-1 compared to E. coli Re-LPS at the concentration range 0.4 – 300 ng/ml. (A) Production of TNF-α; (B) Induction of […]
Supplementary SI-Figure 4
Lipid A mimetic 1 was examined for the activation of NF-κB (Nuclear factor kappaB) and IRF3
(Interferon regulatory factor 3). IRF3 activation […]
noticeable after 1h stimulation, though was
LPS. At 1h stimulation the α,α-GM-LAM 1 was […]
whereas at 3h simulation compound 1 (at a […]
stronger phosphorylation of IκBa (P-IκBa levels) as well as the higher levels of IκBa (reflecting the NF-κB dependent re-synthesis of IκB following its
Thus, IRF3 activation and NF-κB activation […]
degradation and its NF-κB dependent resynthesis) […]
compared to LPS after 3h stimulation. […]

[2] = tested on: bone marrow-derived macrophages (BMDM); test: TNF-α and IL-6 production in mouse bone marrow-derived macrophages (ELISA); type: cell-based, C57BL/6J mice; details: mBMDM
Description: The ability of Lipid A mimetics 1–3 to induce the production of TNF-α and IL-6 from bone marrow-derived macrophages (BMDM) in mice was subsequently examined and compared to that of synthetic E. coli Lipid A and E. coli MPLA, which are reliable positive controls due to their chemical purity and homogeneity (Figure 6). […] Likewise, 1 nM (1.8 ng/mL) of 1 or 2 triggered the release of a 3-fold higher amount of IL-6 (1500 pg/mL) compared to Lipid A (500 pg/mL).
Bone-marrow-derived microphages (BMDMs) were isolated and differentiated from the bone marrow of C57BL/6J mice. The bone marrow was flushed from femur and fibia with RPMI media. The erythrocytes were lysed with 0.88% ammonium chloride, 15 min at 37 °C. A single-cell suspension of the bone marrow cells was then seeded in cell culture flasks at a concentration of 1 × 10^6 cells/mL in RPMI supplemented with 20% FBS and 40 ng/mL recombinant M-CSF. The cell culture medium was changed on day 3. On day 6, the differentiated cells were trypsinized, counted, and seeded in 24-well plates at a concentration of 1 × 10^6 cells/mL in RPMI supplemented with 10% FBS. After 24 h, the cells were stimulated with Lipid A mimetics 1–3 and with synthetic E. coli Lipid A/MPLA (E. coli O111:B4 LPS was used as positive control) for 16 h. The nanomolar concentrations of 1–3 were calculated according to the MW of the synthetic compounds. The supernatants were then tested for cytokines using Ready-Set-Go ELISA kits (eBioscience).

SMILES: CCCCCCCCCCCCCC(=O)O[C@H](CCCCCCCCCCC)CC(=O)O[C@@H]1[C@@H](NC(=O)C[C@@H](CCCCCCCCCCC)OC(=O)CCCCCCCCCCC)[C@@H](O[C@H]2O[C@H](COP(=O)(O)O)[C@@H](OC(=O)C[C@@H](CCCCCCCCCCC)OC(=O)CCCCCCCCCCC)[C@H](O)[C@@H]2OC)O[C@H](CO)[C@H]1OP(=O)(O)O [Compound 1, 4-O-[(R)-3-(Dodecanoyloxy)tetradecanoyl]-2-O-methyl-6-O-phosphoryl-α-D-mannopyranosyl-(1↔1)-2-deoxy-2-[(R)-3-(dodecanoyloxy)tetradecanoylamino]-4-O-phosphoryl-3-O-[(R)-3-(tetradecanoyloxy)tetradecanoyl]-α-D-glucopyranoside]
- activation of the MyD88 signaling pathway compared to Re-LPS/LPS [1]: more potent activators
- potency in induction of expression of IL-8 compared to Re-LPS/LPS ([1]; THP-1, 18 h): higher potency
- potency in induction of expression of TNF-α compared to Re-LPS/LPS ([1]; THP-1, 18 h): higher potency
- fold higher amount of IL-6 compared to Lipid A ([2]; 1 nM): 3 fold

SMILES: CCCCCCCCCCCCCC(=O)O[C@H](CCCCCCCCCCC)CC(=O)O[C@@H]1[C@@H](NC(=O)C[C@@H](CCCCCCCCCCC)OC(=O)CCCCCCCCCCC)[C@@H](O[C@H]2O[C@H](COP(=O)(O)O)[C@@H](OC(=O)C[C@@H](CCCCCCCCCCC)OC(=O)CCCCCCCCC)[C@H](O)[C@@H]2OC)O[C@H](CO)[C@H]1OP(=O)(O)O [Compound 2, 4-O-[(R)-3-(Decanoyloxy)tetradecanoyl]-2-O-methyl-6-O-phosphoryl-α-mannopyranosyl-(1↔1)-2-deoxy-2-[(R)-3-(dodecanoyloxy)tetradecanoylamino]-4-O-phosphoryl-3-O-[(R)-3-(tetradecanoyloxy)tetradecanoyl]-α-D-glucopyranoside]
- activation of the MyD88 signaling pathway compared to Re-LPS/LPS [1]: more potent activators
- release of MCP-1 compared to Re-LPS and compound 1 ([1]; THP-1, 18 h): clearly more effective
- potency in induction of expression of IL-8 compared to Re-LPS/LPS ([1]; THP-1, 18 h): higher potency
- potency in induction of expression of TNF-α compared to Re-LPS/LPS ([1]; THP-1, 18 h): higher potency
- fold higher amount of IL-6 compared to Lipid A ([2]; 1 nM): 3 fold

SMILES: CCCCCCCCCCCCCC(=O)O[C@H](CCCCCCCCCCC)CC(=O)O[C@@H]1[C@@H](NC(=O)C[C@@H](CCCCCCCCCCC)OC(=O)CCCCCCCCCCC)[C@@H](O[C@H]2O[C@H](CO)[C@@H](OC(=O)C[C@@H](CCCCCCCCCCC)OC(=O)CCCCCCCCCCC)[C@H](O)[C@@H]2OC)O[C@H](CO)[C@H]1OP(=O)(O)O [Compound 3, 4-O-[(R)-3-(Dodecanoyloxy)tetradecanoyl]-2-O-methyl-α-D-mannopyranosyl-(1↔1)-2-deoxy-2-[(R)-3-(dodecanoyloxy)tetradecanoylamino]-4-O-phosphoryl-3-O-[(R)-3-(tetradecanoyloxy)tetradecanoyl]-α-D-glucopyranoside]
- induction of the expression of cytokines ([1]; THP-1, TNF-α, IL-8, MCP-1): dampened induction
- expression level of IL-6 ([2]; 1 nM): only marginal expression level
- IL-6 release compared to MPLA ([2]; concentrations above 1 nM): higher IL-6 release than MPLA
